The record followed here is article PMC10545747, “Development of cyclopeptide inhibitors of cGAS targeting protein-DNA interaction and phase separation” (Nature Communications, 2023).

Each structure is given as a SMILES string. Values joined by “and” are separate entries in the source; they are usually repeats but may differ in a detail not shown here. Identical values can stand only once. Square brackets hold non-standard residues; d marks the D form. Peptide text beside a SMILES is read from it.

In experiment [1] the target is T1, recombinant human cGAS enzyme (hcGAS-ΔN, residues 147–522) (Homo sapiens, UniProt Q8N884).
T1 construct: N-terminally truncated human cGAS (hcGAS-ΔN, residues 147–522); 6xHis-SUMO (N, cleaved yes); made in house; host or cells: Escherichia coli BL21 (DE3)
T1 sequence (Q8N884 147-522, stated change not applied): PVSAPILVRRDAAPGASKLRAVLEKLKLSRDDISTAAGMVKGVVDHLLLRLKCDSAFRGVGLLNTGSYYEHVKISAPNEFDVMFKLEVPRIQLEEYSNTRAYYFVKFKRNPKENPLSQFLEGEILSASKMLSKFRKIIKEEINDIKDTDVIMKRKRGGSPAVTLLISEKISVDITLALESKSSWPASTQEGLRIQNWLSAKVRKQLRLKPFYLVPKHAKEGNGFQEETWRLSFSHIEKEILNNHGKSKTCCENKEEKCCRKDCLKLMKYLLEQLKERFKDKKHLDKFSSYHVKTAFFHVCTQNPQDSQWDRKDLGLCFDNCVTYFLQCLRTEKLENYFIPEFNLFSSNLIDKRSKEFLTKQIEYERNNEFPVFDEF
In words: RNA-based fluorescent biosensor assay of cGAS activity (2',3'-cGAMP formation), in vitro screening. Type of experiment: biochemical. Summed up: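 In 40 mM Tris-HCl pH 7.5, 100 mM NaCl, 10 mM MgCl2, ISD (0.5 μM) started the reaction with hcGAS-ΔN (1.5 μM), ATP (1 mM) and GTP (1 mM). Incubation was 2 h at 37 °C, with compounds screened at 20 μM. 2',3'-cGAMP formed was quantified with an RNA-based fluorescent biosensor.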

The subject of experiment [2] is dsDNA-stimulated THP1 cells. In words: qPCR of IFNB1/CXCL10/IL6 mRNA in THP1 cells stimulated by dsDNA (ISD, HSV60mer). Type of experiment: cell-based, human. To be noted: THP1, dsDNA 6 h; hits 10 μM; replicate values. From the text:
(§1) To screen direct cGAS inhibitors targeting protein-DNA interface from our developed focused library of macrocyclic peptides, we applied an RNA-based fluorescent biosensor for 2’,3’-cGAMP to detect cGAS activity in vitro (Supplementary Fig. 1a)[49]. The formation of 2’,3’-cGAMP from ATP and GTP was catalyzed by recombinant human cGAS enzyme (hcGAS-ΔN, residues 147–522, Supplementary Fig. 1b) in the presence of ISD (interferon stimulatory DNA, a 45-bp dsDNA), which was readily quantified by the RNA-based fluorescent biosensor and was further confirmed by ion exchange chromatography (Supplementary Fig. 1c). […] Subsequently, a total of 90 macrocyclic peptides were screened at a concentration of 20 μM (Fig. 1a and Supplementary Fig. 1e), and 4 hits (XQ2, XQ8, XQ19, and XQ46) were obtained for further testing at a cut-off of 40% inhibition (Supplementary Table 1). To evaluate the inhibitory effect of the hits against cGAS in cells, we employed real-time quantitative PCR (qPCR) to examine mRNA levels of IFNΒ1 in THP1 cells. The reported cGAS inhibitor RU.521 was used as the positive control, and the non-active peptide XQ28 in the screening assay was used as the negative control. […] The inhibition of cGAS by these hits was further confirmed in the reporter cell line THP1-Lucia ISG (Invivogen) that expresses secreted luciferase induced by an IRF3-inducible ISG54 promoter (Fig. 1c). The discrepancy between the inhibitory effect of the hits in protein and cellular assays may be attributed to their different cellular permeability.
The indicated cells were stimulated with either ISD (Sangon Biotech), HSV-1 (Provided by Dr. Zhengfan Jiang), HSV60mer (Sangon Biotech), SATE-cddA[70], 2’3’-cGAMP (Invivogen, Cat# tlrl-nacga23-1), ADU-S100 (MedChemExpress, Cat# HY-12885A) or Poly(I:C) (Invivogen, Cat# tlrl-pic) after XQ2 or XQ2B treatment. Total RNA was isolated from indicated cells that incubated with the drugs for indicated time or mice tissues by using NucleoZOL reagent (MACHEREY-NAGEL) according to the manufacturer’s instructions. The quantifications of mRNA levels were carried out by real-time PCR using a PerfectStart® Uni RT&qPCR Kit (TransGen Biotech) on the QuantStudio 5 qPCR machine (Applied Biosystems). Samples were carried out in triplicate and the target CT values were normalized to GAPDH CT values. Primers of qPCR used in this study can be found in Supplementary Table S2.

Another experiment deals with THP1-Lucia ISG cells. Kind of experiment: Luciferase reporter assay, dsDNA stimulation. Type of experiment: cell-based, human. The arrangement: Type I interferon response, luciferase activity, Fig. 1c / luciferase activity, Fig. 2a: scale not given here. To be noted: dsDNA 24 h; replicate values.
Excerpt: as §1
THP1-Lucia ISG cells (Invivogen) were seeded into a 96-well plate and incubated with RU.521 (Invivogen) or XQ2 for the indicated time, and then transfected with dsDNA by lipofectamine 2000 (Invitrogen) or infected by HSV-1 with the indicated titer for 24 h. The supernatant was collected and 50 μL QUANTI-Luc Luciferase reagent (Invivogen) was added to 20 μL supernatants per well, and luciferase luminescence was detected by a microplate reader (BioTek Synergy H1) immediately.

Consider `CC(C)C[C@@H]1NC(=O)[C@H](CCCNC(=N)N)NC(=O)[C@H](C(C)C)NC(=O)[C@H](C)NC(=O)[C@@H](Cc2ccccc2)NC(=O)[C@H](CC(C)C)NC(=O)[C@H](CCCNC(=N)N)NC(=O)[C@H](C(C)C)NC(=O)[C@H](C)NC(=O)[C@@H](Cc2ccccc2)NC1=O` [XQ8, Cyclo (LfAVRLfAVR)] (cyclo(AVRL[dF]AVRL[dF])), for which the “Remaining activity (%), Fig. 1a source data” value in experiment [1] (20 μM, replicate values) was 48.5808% and 47.6977%. For the same compound, in experiment [1] (20 μM, replicate values, read-out: Remaining activity (%), Fig. 1a source data), the remaining activity at 20 µM was determined as 48.8%. For the same compound, in experiment [1] (peptides screened at 20 μM, Supplementary Table 1 / Fig. S5b, 20 µM), the Inhibition % is not below 40%. Besides, the inhibition at 20 µM in experiment [1] (peptides screened at 20 μM, Supplementary Table 1 / Fig. S5b, read-out: Inhibition %) is 52%. Further, the “IFNB1 mRNA, qPCR, Fig. 1b” value in experiment [2] is 50.5074 and 61.5926 and 57.7936. In addition, in the experiment on THP1-Lucia ISG cells, the “Type I interferon response, luciferase activity, Fig. 1c” value is 1.122 and 0.7764 and 0.491.

Broadly, the remaining activity is the share of the control activity or signal that is left under treatment. The term inhibition denotes the drop in the measured response relative to a control, in per cent.
